Test results as given in US9051562B2, “Polypeptides isolated from brevibacterium aurantiacum and their use for the treatment of cancer” (Institut National de la Santé et de la Recherche Médicale …, priority 2011, dated 2015).

What was measured:
[1] = biological target: Brevibacterium aurantiacum (ATCC 9175; formerly B. linens) methionine gamma-lyase MGL-BL929, recombinant, SEQ ID NO: 1 (Brevibacterium aurantiacum, UniProt A0A2H1K3G9); details: for activity of the enzyme towards the substrate (in words): 25 mM of substrate; for activity of the enzyme towards the substrate (in words) / Vmax: pH 7.5, 25° C., 10 min; for Vmax: 100 mM K*PO4, 0.01 mM PLP
HT29MTX cells = test: Growth inhibition of HT29MTX cells (Trypan blue dye exclusion), resistance to methotrexate; format: cell-based, human; details: 1 μM methotrexate
Text: Seven human tumor cell lines were used to determine the cellular effects of MGL-BL929. These comprise five adherent solid tumor-derived cell lines (including the colorectal carcinoma cell line HT29, two stable variants of HT29 selected for their high levels of resistance to methotrexate (HT29MTX), and to fluorouracil (HT29FUra), the ovarian carcinoma cell line SKOV3, and the hepatoblastoma-derived cell line (HepG2), and 2 non-adherent tumor cell lines (including the T-cell lymphoma cell line Jurkat, and the acute lymphocytic leukemia cell line Reh). Similarly, human non-tumor skin fibroblasts (CDGII) were exposed to MGL-BL929 at various concentrations in order to explore selectivity of MGL-BL929 towards cancer cells.
The cells lines were thawed from mycoplasma-free frozen stocks and were controlled for contamination. Cells were maintained in cell culture medium (RPMI 1640 or DMEM according to the growth requirements of each cell line), supplemented with 10% FBS and antibiotics (streptomycin, 50 μg/mL, and penicillin, 50 U/mL) at 37° in an atmosphere containing 5% CO2. Cells were exposed in 12 well-cell plates to the purified recombinant MGL-BL929 at a concentration range from 0.05 U/mL to 5 U/mL, and were harvested 24 hr., 48 hr., 72 hr., and 96 hr. from start of the exposure. Cell viability was measured with the Trypan blue dye exclusion test in Malassez chambers.

| Structure (SMILES) | activity of the enzyme towards the substrate (in words) [1] | Vmax [1] | resistance of the cells to methotrexate (in words) (HT29MTX cells) | Affinity relative to L-methionine (fold greater) ([1]; L-homocysteine compared with L-methionine) |
| --- | --- | --- | --- | --- |
| Nc1ncnc2c1ncn2[C@@H]1O[C@H](CSCC[C@H](N)C(=O)O)[C@@H](O)[C@H]1O [S-Adenosyl L-homocysteine] | no activity | 0 μmol · min^−1 · m^−1 |  |  |
| CSCC[C@H](N)C(=O)O [L-Methionine, L-methionine] |  | 5.77 ± 1.4 μmol · min^−1 · m^−1 |  |  |
| N[C@@H](CS)C(=O)O [L-Cysteine, L-cysteine] | no activity | 0 μmol · min^−1 · m^−1 |  |  |
| CSCC[C@@H](N)C(=O)O [D-methionine] | no activity | 0 μmol · min^−1 · m^−1 |  |  |
| N[C@@H](CCSC[C@H](N)C(=O)O)C(=O)O [L-Cystathionine, L-cystathionine] | no activity | 0 μmol · min^−1 · m^−1 |  |  |
| CN(Cc1cnc2nc(N)nc(N)c2n1)c1ccc(C(=O)N[C@@H](CCC(=O)O)C(=O)O)cc1 [methotrexate] |  |  | fully resistant |  |
| N[C@@H](CCS)C(=O)O [L-Homocysteine, L-homocysteine] |  | 27.7 ± 5.7 μmol · min^−1 · m^−1 |  | 7.3 fold |
